Conditions: acidic group

Compound | pKa
CCOc1ccc(C(=O)NC(=S)N(CC)CC)cc1 | 8.83
CC(C)[NH2+]CCc1ccc(O)cc1 | 9.59
O=P([O-])([O-])C([NH2+]Cc1ccncc1)c1ccccc1O (stereo not given) | 10.2
OC(C[S-])CS | 10.7
C=C(C)[C@H]1C[NH2+][C@H](C(=O)O)[C@H]1CC(=O)O | 2.1
O=C(O)CCCC1CCCCC1 | 4.95
O=P(O)(O)C([NH2+]Cc1cccc[nH+]1)c1ccccc1O (stereo not given) | 2.25
NS(=O)(=O)c1nc2ccccc2s1 | 7.8
CC(=O)C(=O)CC(=O)C(C)=O | 4.68
O=S(=O)(Nc1cccc(F)c1)c1ccccc1 | 7.54
O=C(O)c1ccc(F)cc1 | 4.16
Cc1ccc([N+](C)(C)O)cc1 | 4.32
O=C([O-])c1ccc(O)c([N+](=O)[O-])c1 | 6.41
O=C(O)c1ccccc1O[C@H]1O[C@@H](CO)[C@H](O)[C@@H](O)[C@@H]1O | 3.6
Cc1cc(C)c(C)c(C(=O)O)c1C | 3.43
Cc1ccnc(NS(=O)(=O)c2ccc(Cl)cc2)n1 | 5.37
CCc1c(O)nn(-c2ccccc2C(=O)[O-])c1C | 12.2
C=C(C)[C@@H]1CN(C(C)=O)[C@H](C(=O)OC)[C@@H]1CC(=O)O | 4.6
COc1c(C)cc2c(c1C(=O)O)COC2 | 3.13

Compound | pKa
Cc1nn(-c2ccccc2)c(O)c1C1CCCCC1 | 11.6
CN(C)C(=S)OCC(=O)O | 2.87
C[C@H](O)C(=O)C1=Nc2c(nc(N)[nH+]c2O)NC1 | 1.45
CSc1cccc(O)c1 | 9.47
[NH3+][C@H]1CC[C@@H](C(=O)O)CC1 | 4.6
O=S1(=O)OC(c2cc(Br)c(O)c(Br)c2)(c2cc(Br)c(O)c(Br)c2)c2ccccc21 | 4.2
O=C(O)c1ccc(Oc2ccccc2)cc1 | 4.52
O=C(O)c1sccc1[N+](=O)[O-] | 2.68
O=C(S)c1ccccc1 | 2.44
CCC([NH3+])C(=O)O (stereo not given) | 2.29
c1ccc2[nH]cnc2c1 | 12.6
Oc1ccc(Br)cc1Br | 7.77
Cc1ccc([N+](C)(C)C)cc1O | 8.2
CC1C(=O)CC(C)(C)CC1=O | 5.6
O=Cc1cc(Cl)cc([N+](=O)[O-])c1O | 4.46
O=C(O)c1cccc[n+]1[O-] | 3.54
O=Cc1cc(Cl)ccc1O | 7.4
COc1cc(S(C)=O)ccc1-c1nc2cnncc2[nH]1 (stereo not given) | 8.49
C=C(C)[C@H]1C[NH2+][C@H](C(=O)O)[C@H]1CC(N)=O | 2.01

Same assay, conditions: basic group

Compound | pKa
CCCC(=O)C1(c2cccc(O)c2)CCN(C)CC1 | 8.62
c1nc(Cc2c[nH]c(Cc3[nH]cc[nH+]3)n2)c[nH]1 | 6.15
Cc1cnc([C@@H](O)[C@H](O)[C@H](O)CO)cn1 | 1.4
CCCCCCCCCCCCNc1ccccc1 | 4.12
C=C(C)C(=O)NCCN(C)C | 8.54
O=C([O-])C(NCCNC(C(=O)[O-])c1ccccc1[O-])c1ccccc1[O-] (stereo not given) | 11.7
Cc1cc(C(c2ccc(N)cc2)c2ccc(N)cc2)ccc1N | 4.9
NC(N)=O | 0.4
COc1ccc2c(c1)C(O)N(C)C=C2 (stereo not given) | 2.15
Cc1c2ccccc2c(CN2CCOCC2)c2ccccc12 | 6.6
Nc1ncc([N+](=O)[O-])s1 | 0.61
Cn1c(CBr)nc2c(O)ccc(O)c21 | 3.99
Cn1cnc(C(=O)[O-])c1C(=O)[O-] | 8
NNC(=O)c1ccccc1[NH3+] | 1.85
[NH3+]CCNCCO | 6.66
CCCCNCCNCCCC | 10.2
OC1(c2cc3ccccc3o2)CN2CCC1CC2 (stereo not given) | 8.84
Cc1ccc(NCCNc2ccc(C)cc2)cc1 | 4
CCOCCN(CCOCC)c1ccccc1 | 4.1
CCNC(C)C | 11
CCNNCC | 7.66
O=[PH]([O-])C([NH2+]Cc1ccncc1)c1ccccc1O (stereo not given) | 3.25
c1ccc2cc3ncccc3cc2c1 | 4.92
c1ccc2[nH]cnc2c1 | 5.51
C[C@@H]1CN[C@@H](C)CN1 | 9.76
COc1cc(S(C)=O)ccc1-c1nc2cnncc2[nH]1 (stereo not given) | 3.81
C1CCN(C2CCNCC2)CC1 | 10.7

— the pKa sets of Baltruschat and Czodrowski (2020)
